Values quoted from earlier work, collected in patent US20130035389A1, “METHODS FOR TREATING MYELODYSPLASTIC SYNDROME WITH EZATIOSTAT” (Telik, Inc., priority 2011, published 2013).

What was measured:
GST P1-1 = GST P1-1 (Homo sapiens, UniProt P09211); details: leads to de-repression of jun kinase and activation of c-Jun
[1] = tested on: hematopoietic progenitor cells; details: in vitro
leukemia cells = details: in vitro
myelodysplastic syndrome = details: low risk and intermediate-1 risk MDS patients, oral, phase II study

Sequence of GST P1-1 (P09211 2-210 limits assumed): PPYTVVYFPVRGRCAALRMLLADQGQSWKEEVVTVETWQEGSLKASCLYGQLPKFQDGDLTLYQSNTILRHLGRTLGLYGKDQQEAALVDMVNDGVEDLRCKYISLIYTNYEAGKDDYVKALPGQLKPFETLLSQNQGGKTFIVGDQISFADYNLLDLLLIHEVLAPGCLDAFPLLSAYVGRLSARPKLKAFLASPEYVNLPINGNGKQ

inhibition of GST P1-1 (GST P1-1)	SMILES	effect on growth and differentiation of hematopoietic progenitor cells [1]	apoptosis in leukemia cells (leukemia cells)	clinical response (myelodysplastic syndrome)
inhibits GST P1-1	CCOC(=O)[C@@H](N)CCC(=O)N[C@@H](CSCc1ccccc1)C(=O)N[C@@H](C(=O)OCC)c1ccccc1 [Ezatiostat, ethyl (2S)-2-amino-5-[[(2R)-3-benzylsulfanyl-1-[[(1R)-2-ethoxy-2-oxo-1-phenylethyl]amino]-1-oxopropan-2-yl]amino]-5-oxopentanoate]	stimulate growth and differentiation of hematopoietic progenitor cells	induce apoptosis in leukemia cells	
	CCOC(=O)[C@@H](N)CCC(=O)N[C@@H](CSCc1ccccc1)C(=O)N[C@@H](C(=O)OCC)c1ccccc1.Cl [ezatiostat hydrochloride]			multilineage responses
